Assay [1] has as its system MM.1S myeloma cells. Nature of the assay: Cell proliferation inhibition test by CTG (CellTiter-Glo) assay. In kind it is cell-based. The following applies: Homo sapiens, MM1.S, 120 hours drug treatment, 4,000 cells/well, 384-well plate, read-out: MM.2S IC50. On the procedure:
Experimental Method for Cell Proliferation Inhibition Test by CTG Assay:
The proliferation inhibitory activity of the compounds in the MM.1S myeloma cell model was determined by CellTiter-Glo (CTG) Luminescent Cell Viability Assay (Promega). MM.1S cells (ATCC, Cat #CRL-2974) at exponential phase were resuspended in RPMI-1640 (Gibco, Cat #11875-093)+10% FBS+1% penicillin/streptomycin+2 mM Glutamax medium and counted using an automated cell counter (ViCellXR). According to the optimized cell plating density in the pre-experiments, 40 μl of cell suspension at a density of 100,000 cells/ml was plated in the corresponding wells of a 384-well plate (4,000 cells/well) to ensure that cells in the control group were at linear growth phase within the five-day experimental period. The plated 384-well plate was cultured in a 37° C., 5% CO2 incubator for 24 hours. On the day of administration, each compound was formulated into 10 mM stock solution with DMSO (Sigma, Cat #276855-1L) and the stock solution was further diluted with DMSO to 20 μM and 20 nM working solutions. Drug treatment of MM.1S cells started at a concentration of up to 100 nM and the drug was serial diluted 4-fold with 10 points, with three replicate wells. Nanoliter volumes of compound solutions were added to the corresponding wells of the 384-well plate according to the needed concentration in a non-contact spraying manner by an HPD300 microscale automated dispenser (Tecan). The final concentration of DMSO was 0.5%. After drug addition, the 384-well plate was cultured in a 37° C., 5% CO2 incubator for 120 hours. After five days of drug treatment, 25 μl of CTG reagent (Promega, Cat #G7573) was added to each well, and the plate was shaken on a plate shaker for 10 minutes to ensure that the cells were fully lysed, and then left to stand at room temperature for 10 minutes to ensure a sufficient reaction of CTG with the substrate and the generation of a stable luminescent signal. The signal is proportional to the amount of ATP in the cell lysate, i.e., the number of metabolically active cells. Chemiluminescence of the cells in the plate was detected by an EnSpire instrument. The reading of the cells at Day 0 was used as a control for cells at growth starting point and the reading of cells with 0.5% DMSO at Day 5 was used as a control for cells under growth. Cell proliferation inhibition curve was plotted using XLFit software and the IC50 value was calculated. Experiment results can be seen in Table 2.

Assay [2] deals with MM.1S myeloma cells. The assay is described as follows: Cell proliferation inhibition test by MTS assay. The class given is cell-based. The following applies: Homo sapiens, MM1.S, 72 hours drug treatment, 15,000 cells/well, 96-well plate. As for the experimental part: Experimental Method for Cell Proliferation Inhibition Test by MTS Assay:
Proliferating MM.1S myeloma cells (ATCC, Cat #CRL-2974) were resuspended in RPMI-640 medium (Gibco, Cat #A10491-01) and counted using an automated cell counter. The cell suspension was diluted to the needed density and 100 μl (15,000 cells) of the cell suspension was plated per well in a 96-well plate. The plate was cultured in a 37° C., 5% CO2 incubator for 24 hours. On the day of administration, each compound was formulated into 20 mM stock solution with DMSO (Sigma, Cat #D2650), diluted with a medium to the needed concentration, and then added to the corresponding wells for the cell proliferation inhibition test with a drug of 4-fold serial dilution with 10 points. The final concentration of DMSO was 0.5%. After drug addition, the 96-well plate was cultured in a 37° C., 5% CO2 incubator for 72 hours. Then, 20 μl of MTS (Promega, Cat #G3581) was added to each well and the plate was cultured for 2 hours in a 37° C., 5% CO2 incubator, and then the absorbance at 490 nm of each well was recorded using an Ensight instrument. The reading of the cells at Day 0 was used as a negative control and the reading of cells with 0.5% DMSO at Day-3 was used as a positive control. Cell proliferation inhibition curve was plotted using GraphPad Prism 5 software and the IC50 value was calculated. Experiment results can be seen in Table 1.
In general terms: Tetrazolium dyes change colour on reduction, which living cells bring about.

pIC50: −log10 of the molar value.

The pIC50 is the negative decadic logarithm of the IC50, by convention in mol/L. As for `CNC(=O)c1ccc(N2CCN(Cc3ccc(COc4cccc5c4CN([C@H]4CCC(=O)NC4=O)C5=O)cc3F)CC2)cc1F` [CM-45], the pIC50 in the assay on MM.1S myeloma cells [1] is 10.03.
The same measure, in the same setting: under `CCOc1cc(N2CCN(Cc3ccc(COc4cccc5c4CN([C@H]4CCC(=O)NC4=O)C5=O)cc3F)CC2)ccc1C#N` [CM-46] stands 10.16.
Turning to `N#Cc1ccc(N2CCN(Cc3ccc(COc4cccc5c4CN([C@H]4CCC(=O)NC4=O)C5=O)c(F)c3)CC2)c(F)c1C(F)(F)F` [CM-47], in the assay with MM.1S myeloma cells [1], the pIC50 was 9.87.
For `N#Cc1ccc(N2CCN(Cc3ccc(COc4cccc5c4CN([C@H]4CCC(=O)NC4=O)C5=O)c(F)c3)CC2)c(F)c1Cl` [CM-48], the pIC50 in the assay on MM.1S myeloma cells [1] is 10.44.
As for `COc1c(C#N)ccc(N2CCN(Cc3ccc(COc4cccc5c4CN([C@H]4CCC(=O)NC4=O)C5=O)c(F)c3)CC2)c1F` [CM-49], the pIC50 in the assay with MM.1S myeloma cells [1] was 10.22.
`Nc1cccc2c1CN(C1CCC(=O)NC1=O)C2=O` (stereo not shown) [Control 1, reference compound]: the pIC50 was 6.92 in the assay with MM.1S myeloma cells [1] and 7.64 in the assay with MM.1S myeloma cells [2].

The values are drawn from patent publication US20230114674A1, “ISOINDOLINE DERIVATIVE, AND PHARMACEUTICAL COMPOSITION AND USE THEREOF” (KANGPU BIOPHARMACEUTICALS, LTD., priority 2020, published 2023).
